Laboratory results: patent US4544556A, “Xanthine derivatives, pharmaceutical compositions containing same and their therapeutic use” (Malesci S.p.A. Istituto Farmacologico, priority 1982, dated 1985)
Like-named read-outs stand apart in the source and are kept apart here.

Tests used:
Acute toxicity = conditions: mouse, in vivo, male Swiss mouses about 20 g, empty since 16 hours, read-out: DL50 (the source's name)
Procedure: The compound has been administered either per os or by intravenous injection to male Swiss mouses having a weight of about 20 g, empty since 16 hours.

[1] = tested on: acetylcholine induced bronchospasm; experiment: Antibronchospastic activity (acetylcholine induced bronchospasm, Konzett-Rossler method); format: in vivo, guinea pigs; conditions: Cavia porcellus, im, read-out: ED50 (50% reduction of acetylcholine induced bronchospasm)
From the text: The test has been carried out in anaesthesized adult guinea pigs under artificial respiration.

brain P.D.E. = experiment: Antiphosphodiesterase activity, brain P.D.E.; format: biochemical, Wistar rats; conditions: rat brain, relative to theophylline
From the text: (§1) The preparation of the enzyme from heart, lungs and brain of Wistar rats and the activity test of P.D.E. have been carried out according to the R. W. BUTCHER and E. W. […] (J. Biol. Chem. 237, 1244; 1962).

heart P.D.E. = experiment: Antiphosphodiesterase activity, heart P.D.E.; format: biochemical, Wistar rats; conditions: rat heart, relative to theophylline
From the text: as §1

lung P.D.E. = experiment: Antiphosphodiesterase activity, lung P.D.E.; format: biochemical, Wistar rats; conditions: rat lungs, relative to theophylline
From the text: as §1

mouses = experiment: Activity on CNS: reaction to subtoxic dose of cardiazole, mouses; format: in vivo; conditions: cardiazole i.p. 60-70 mg/Kg
rats = experiment: Activity on CNS: reaction to subtoxic dose of cardiazole, rats; format: in vivo; conditions: cardiazole i.p. 60-70 mg/Kg
guinea pigs = experiment: Activity on CNS: reaction to subtoxic dose of cardiazole, guinea pigs; format: in vivo; conditions: cardiazole i.p. 60-70 mg/Kg
[2] = 0.5 h, 30' after intramuscular administration
[3] = 1 h, 60' after intramuscular administration
[4] = 1.5 h, 90' after intramuscular administration

Row | SMILES | LD50 (Acute toxicity; po, per os) [mg/kg] | LD50 (Acute toxicity; intravenous injection) [mg/kg] | ED50 [1, 2] [µmol/kg] | ED50 [1, 3] [µmol/kg] | ED50 [1, 4] [µmol/kg] | activity against brain P.D.E. in comparison with theophylline (brain P.D.E.) | activity against heart P.D.E. in comparison with theophylline (heart P.D.E.) | activity against lung P.D.E. in comparison with theophylline (lung P.D.E.) | % dead animals (mouses; 25 mg/kg S.C. (20')) [%] | % dead animals (mouses; 50 mg/kg S.C. (20')) [%] | % dead animals (mouses; 100 mg/kg S.C. (20')) [%] | % dead animals (rats; 50 mg/kg S.C. (20')) [%] | % dead animals (rats; 100 mg/kg S.C. (20')) [%] | % dead animals (guinea pigs; 50 mg/kg S.C. (20')) [%] | % dead animals (guinea pigs; 100 mg/kg S.C. (20')) [%]
1 | CC(C)Cn1cnc2c1c(=O)n(C)c(=O)n2C [7-isobutyl theophylline, 1,3-dimethyl-7-isobutyl-xanthine] | 199 | 129 | 120 | 140 | 160 | twice more active | four times more active | four times more active | 0 | 0 | 0 | 0 | 0 | 0 | 0
2 | Cn1c(=O)c2[nH]cnc2n(C)c1=O [Theophylline, theophylline, reference compound] |  |  | 270 | 230 | 200 |  |  |  |  |  |  |  |  |  | 
